Data on two compounds can be found in article PMC5760531, “Action Potential Recording and Pro-arrhythmia Risk Analysis in Human Ventricular Trabeculae” (Frontiers in Physiology, 2018).

Structures are written as SMILES. Several values for one entry are separate records, joined by “and”; a condition that tells them apart may be missing. Identical values can stand only once.

The conditions of series [1]: human free (unbound) effective therapeutic plasma concentration used to calculate multiples; cited from earlier work.
Series [2] deals with human ventricular trabeculae. The experiment in a line: Action potential recording and pro-arrhythmic score analysis in human ventricular trabeculae (hVT).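 For all read-outs here: sharp microelectrode action potential recordings at 37°C in Tyrode-perfused trabeculae, 4 cumulative concentrations each applied 31 min, values averaged over last 30 APs, vehicle 0.1% DMSO as control.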 To be noted: for EADs incidence / Refractoriness Escape incidence: c1-c4: 0.4-.
Setting [3] is: 1Hz, 1.3-, 13-, 43-FOLD free ETPC (2.3µM).
The mark [4] stands for this setting: 2Hz, 1.3-, 13-, 43-FOLD free ETPC (2.3µM).
[5] abbreviates: average raw data, 1Hz, c2-c5: 0.4-, 1.3-, 13-, 43-FOLD free ETPC (2.3µM).
[6] abbreviates: average raw data, 2Hz, c2-c5: 0.4-, 1.3-, 13-, 43-FOLD free ETPC (2.3µM).

Consider `COc1ccccc1OCC(O)CN1CCN(CC(=O)Nc2c(C)cccc2C)CC1` (stereo not shown) [RANOLAZINE, Ranolazine], for which the “Free ETPC” value in series [1] is 2.3 µM. Moreover, in series [2] (setting [3]), the EADs incidence is reported as 0% and the “Refractoriness Escape incidence” value was 0%. For the same compound, in series [2] (setting [4]), the EADs incidence came to 0% and the “Refractoriness Escape incidence” value came out at 0%. For the same compound, in series [2] (setting [5]), the AMAX was 112 mV and 111 mV and 113 mV and 109 mV; the APD30 was 146 ms and 136 ms and 126 ms and 116 ms; the APD50 is 198 ms and 187 ms and 181 ms and 170 ms; the APD90 is 266 ms and 257 ms and 274 ms and 294 ms. In addition, in series [2] (setting [5]), the Alternans was 0.34 and 0.37 and 0.39; the EADs was 0; the ERP is 0.47 and 0.48 and 0.50 and 0.49; the “Max Dispersion” value is 1.65 and 1.42 and 1.45 and 1.75. In addition, in series [2] (setting [5]), the “Refractoriness Escape” value amounted to 0; the STV is 0.22 and 0.27 and 0.29 and 0.24; the Triangulation is 121 and 148 and 178. In addition, in series [2] (setting [6]), the AMAX is 111 mV and 105 mV; the APD30 was 108 ms and 102 ms and 99 ms and 104 ms; the APD50 was 151 ms and 144 ms and 143 ms; the APD90 was 215 ms and 210 ms and 230 ms and 275 ms. Besides, in series [2] (setting [6]), the EADs is given as 0; the ERP is 0.48 and 0.49 and 0.47; the “Refractoriness Escape” value worked out at 0; the Triangulation was 107 and 108 and 131 and 172.

`COc1c(N2C[C@@H]3CCCN[C@@H]3C2)c(F)cc2c(=O)c(C(=O)O)cn(C3CC3)c12` [MOXIFLOXACIN, Moxifloxacin]: the EAD detection result in series [2] (at 91-fold hETPC) is listed as “only detected in one trabecula”.
